Patent publication US7358276B2, “2-Oxo-1-pyrrolidine derivatives, processes for preparing them and their uses” (UCB, S.A., priority 2000, dated 2008)

Legend:
[1] = A. J. GOWER et al., Eur. J. Pharmacol., 222, (1992), 193-203; cited from earlier work
[2] = tested on: audiogenic seizures in sound-susceptible mice; assay: Animal model of sound-susceptible mice (audiogenic seizures); type: in vivo; details: intraperitoneally 60 minutes before induction of audiogenic seizures; doses given in mol/kg
From the text: The activity of the compounds of formula I, or their pharmaceutically acceptable salts, as anticonvulsants can be determined in the audiogenic seizures model. The objective of this test is to evaluate the anticonvulsant potential of a compound by means of audiogenic seizures induced in sound-susceptible mice, a genetic animal model with reflex seizures. In this model of primary generalised epilepsy, seizures are evoked without electrical or chemical stimulation and the seizure types are, at least in part, similar in their clinical phenomenology to seizures occurring in man (Löscher W. & Schmidt D., Epilepsy Res. (1998), 2, p. 145-181; Buchhalter J. R., Epilepsia (1993), 34, S31-S41). Results obtained with compounds of formula I are indicative of a strong pharmacological effect.
The objective of this test is to evaluate the anticonvulsant potency of a compound in sound-susceptible mice, a genetic animal model with reflex seizures. In this model of primary generalised epilepsy, seizures are evoked without electrical or chemical stimulation and the seizure types are, at least in part, similar in their clinical phenomenology to seizures occuring in man (Löscher W. & Schmidt D., Epilepsy Res. (1998), 2, 145-181; Buchhalter J. R., Epilepsia (1993), 34, S31-S41).
Male or female genetically sound-sensitive mice (14-28 g; N=10), derived from a DBA strain originally selected by Dr. Lehmann of the Laboratory of Acoustic Physiology (Paris) and bred in the UCB Pharma Sector husbandry unit since 1978, are used. The experimental design consisted of several groups, one group receiving the vehicle control and the other groups different doses of the test-compound. The compounds are administered intraperitoneally 60 minutes before the induction of audiogenic seizures.
For testing, the animals are placed in small cages, one mouse per cage, in a sound-attenuated chamber. After a period of orientation of 30 seconds, the acoustic stimulus (90 dB, 10-20 kHz) is delivered for 30 seconds via loudspeakers positioned above each cage. During this interval, the mice are observed and the presence of the 3 phases of the seizure activity namely wild running, clonic and tonic convulsions, is recorded. The proportion of mice protected against wild running, clonic and tonic convulsions, respectively, is calculated.
For active compounds, an ED50 value, i.e. the dose producing 50% protection relative to the control group, together with 95% confidence limits, was calculated using a Probit Analysis (SAS/STAT® Software, version 6.09, PROBIT procedure) of the proportions of protected mice for each of the 3 phases of the seizure activity.

[3] = molecular target: T1, Levetiracetam Binding Site (LBS), rat cerebral cortex membranes (Rattus norvegicus, UniProt Q02563); assay: LBS binding assay (competitive binding, [3H]-2-[4-(3-azidophenyl)-2-oxo-1-pyrrolidinyl]butanamide); details: 4° C., 120 min
T1 construct: The crude membrane pellet obtained is resuspended in 50 mmol/l Tris-HCl (pH 7.4); from tissue; host or cells: rat cerebral cortex crude membranes (male Sprague-Dawley)
T1 sequence (Q02563 whole entry): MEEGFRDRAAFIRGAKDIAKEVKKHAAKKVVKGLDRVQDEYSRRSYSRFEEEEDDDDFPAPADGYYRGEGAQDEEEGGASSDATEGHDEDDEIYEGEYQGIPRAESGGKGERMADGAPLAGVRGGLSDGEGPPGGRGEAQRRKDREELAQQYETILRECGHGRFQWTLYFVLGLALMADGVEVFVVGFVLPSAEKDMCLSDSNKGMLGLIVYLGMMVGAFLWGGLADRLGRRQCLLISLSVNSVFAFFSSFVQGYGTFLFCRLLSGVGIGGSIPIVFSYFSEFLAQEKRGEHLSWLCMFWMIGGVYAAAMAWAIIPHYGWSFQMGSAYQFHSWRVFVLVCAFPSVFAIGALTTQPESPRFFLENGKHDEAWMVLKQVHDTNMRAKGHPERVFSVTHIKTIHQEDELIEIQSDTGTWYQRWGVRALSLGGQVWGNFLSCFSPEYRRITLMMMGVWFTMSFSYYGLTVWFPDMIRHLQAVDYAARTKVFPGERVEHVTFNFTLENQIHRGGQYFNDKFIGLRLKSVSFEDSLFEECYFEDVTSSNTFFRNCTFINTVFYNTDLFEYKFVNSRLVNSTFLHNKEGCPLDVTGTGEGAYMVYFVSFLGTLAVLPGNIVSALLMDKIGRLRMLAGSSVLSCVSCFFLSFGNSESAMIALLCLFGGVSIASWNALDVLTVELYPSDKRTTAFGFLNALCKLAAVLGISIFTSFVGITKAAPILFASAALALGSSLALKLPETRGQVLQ

CC[C@H](C(N)=O)N1CCCC1=O [(R)-α-ethyl-2-oxo-1-pyrrolidine acetamide]
activity in the treatment of epilepsy [1]: completely lacks activity

C=C[C@H]1CC(=O)N([C@@H](CC)C(N)=O)C1 [Compound 93]
ED50 (dose producing 50% protection against audiogenic seizures) [2]: Particularly promising activity
melting point: 68.3 °C
pKi (affinity for the levetiracetam binding site) [3]: Particular affinity

CCC(C(N)=O)N1CC(c2ccccc2Br)CC1=O (centres unmarked) [Compound 95]
ED50 (dose producing 50% protection against audiogenic seizures) [2]: Particularly promising activity
melting point: 165.4 °C
pKi (affinity for the levetiracetam binding site) [3]: Particular affinity

CCC(C(N)=O)N1CC(c2cccnc2)CC1=O (centres unmarked) [Compound 96]
ED50 (dose producing 50% protection against audiogenic seizures) [2]: Particularly promising activity
melting point: 104.3 °C
pKi (affinity for the levetiracetam binding site) [3]: Particular affinity

CC[C@@H](C(=O)NC)N1CC(CI)CC1=O (stereo partly drawn) [Compound 146, (2S)-2-[4-(iodomethyl)-2-oxo-1-pyrrolidinyl]-N-methylbutanamide]
ED50 (dose producing 50% protection against audiogenic seizures) [2]: Particularly promising activity
melting point: 66.6 °C
pKi (affinity for the levetiracetam binding site) [3]: Particular affinity

CCC(C(N)=O)N1CC(/C=C\F)CC1=O (centres unmarked) [Compound 162]
ED50 (dose producing 50% protection against audiogenic seizures) [2]: Particularly promising activity
melting point: 105 °C
pKi (affinity for the levetiracetam binding site) [3]: Particular affinity

CCCCC1CC(=O)N(C(CC)C(N)=O)C1 (centres unmarked) [Compound 164]
ED50 (dose producing 50% protection against audiogenic seizures) [2]: Particularly promising activity
melting point: 108.8 °C
pKi (affinity for the levetiracetam binding site) [3]: Particular affinity

CCC(C(N)=O)N1CC(CC(C)C)CC1=O (centres unmarked) [Compound 166]
ED50 (dose producing 50% protection against audiogenic seizures) [2]: Particularly promising activity
melting point: 120.2 °C
pKi (affinity for the levetiracetam binding site) [3]: Particular affinity

CC[C@@H](C(N)=O)N1CC(c2cccc(Br)c2)CC1=O (some centres unmarked) [Compound 180]
ED50 (dose producing 50% protection against audiogenic seizures) [2]: Particularly promising activity
melting point: 99.6 °C
pKi (affinity for the levetiracetam binding site) [3]: Particular affinity

CCC(C(N)=O)N1CC(c2ccc(Cl)c(Cl)c2)CC1=O (centres unmarked) [Compound 187]
ED50 (dose producing 50% protection against audiogenic seizures) [2]: Particularly promising activity
melting point: 177.9 °C
pKi (affinity for the levetiracetam binding site) [3]: Particular affinity

CCC(C(N)=O)N1CC(c2ccc(Cl)cc2Cl)CC1=O (centres unmarked) [Compound 188]
ED50 (dose producing 50% protection against audiogenic seizures) [2]: Particularly promising activity
melting point: 154.7 °C
pKi (affinity for the levetiracetam binding site) [3]: Particular affinity

CCC(C(N)=O)N1CC(CCCc2ccccc2)CC1=O (centres unmarked) [Compound 197]
ED50 (dose producing 50% protection against audiogenic seizures) [2]: Particularly promising activity
melting point: 92.5 °C
pKi (affinity for the levetiracetam binding site) [3]: Particular affinity

CC[C@@H](C(N)=O)N1CC(c2cc(Br)cc(Br)c2)CC1=O (some centres unmarked) [Compound 198]
ED50 (dose producing 50% protection against audiogenic seizures) [2]: Particularly promising activity
melting point: 118.6 °C
pKi (affinity for the levetiracetam binding site) [3]: Particular affinity

CCC(C(N)=O)N1CC(c2ccc(Cl)c(Cl)c2)CC1=O (centres unmarked) [Compound 200]
ED50 (dose producing 50% protection against audiogenic seizures) [2]: Particularly promising activity
melting point: 154.4 °C
pKi (affinity for the levetiracetam binding site) [3]: Particular affinity

CCC(C(N)=O)N1CC(c2ccccc2F)CC1=O (centres unmarked) [Compound 209]
ED50 (dose producing 50% protection against audiogenic seizures) [2]: Particularly promising activity
melting point: 123.7 °C
pKi (affinity for the levetiracetam binding site) [3]: Particular affinity

CCC(C(N)=O)N1CC(c2ccccc2F)CC1=O (centres unmarked) [Compound 211]
ED50 (dose producing 50% protection against audiogenic seizures) [2]: Particularly promising activity
melting point: 150.9 °C
pKi (affinity for the levetiracetam binding site) [3]: Particular affinity

CC[C@@H](C(N)=O)N1CC(CC2CC2)CC1=O (some centres unmarked) [Compound 212]
ED50 (dose producing 50% protection against audiogenic seizures) [2]: Particularly promising activity
melting point: 104.4 °C
pKi (affinity for the levetiracetam binding site) [3]: Particular affinity

CC[C@@H](C(N)=O)N1CC(CCC(F)(F)F)CC1=O (some centres unmarked) [Compound 214]
ED50 (dose producing 50% protection against audiogenic seizures) [2]: Particularly promising activity
melting point: 120.9 °C
pKi (affinity for the levetiracetam binding site) [3]: Particular affinity

CC[C@@H](C(N)=O)N1CC(CCC(F)(F)F)CC1=O (some centres unmarked) [Compound 215]
ED50 (dose producing 50% protection against audiogenic seizures) [2]: Particularly promising activity
melting point: 115.9 °C
pKi (affinity for the levetiracetam binding site) [3]: Particular affinity

CCC(C(N)=O)N1CC(c2cccc(C)c2)CC1=O (centres unmarked) [Compound 219]
ED50 (dose producing 50% protection against audiogenic seizures) [2]: Particularly promising activity
melting point: 79.4 °C
pKi (affinity for the levetiracetam binding site) [3]: Particular affinity

CC[C@@H](C(N)=O)N1CC(CC2CC2)CC1=O (some centres unmarked) [Compound 221]
ED50 (dose producing 50% protection against audiogenic seizures) [2]: Particularly promising activity
melting point: 93.9 °C
pKi (affinity for the levetiracetam binding site) [3]: Particular affinity

C=CCC1CC(=O)N([C@@H](CC)C(N)=O)C1 (stereo partly drawn) [Compound 224, (2S)-2-(4-allyl-2-oxo-1-pyrrolidinyl)butanamide]
ED50 (dose producing 50% protection against audiogenic seizures) [2]: Particularly promising activity
melting point: 69.2 °C
pKi (affinity for the levetiracetam binding site) [3]: Particular affinity

C=CCC1CC(=O)N([C@@H](CC)C(N)=O)C1 (stereo partly drawn) [Compound 228, (2S)-2-(4-allyl-2-oxo-1-pyrrolidinyl)butanamide]
ED50 (dose producing 50% protection against audiogenic seizures) [2]: Particularly promising activity
melting point: 58.3 °C
pKi (affinity for the levetiracetam binding site) [3]: Particular affinity

CC[C@@H](C(N)=O)N1CC(CC(C)=O)CC1=O (some centres unmarked) [Compound 229]
ED50 (dose producing 50% protection against audiogenic seizures) [2]: Particularly promising activity
melting point: 90.6 °C
pKi (affinity for the levetiracetam binding site) [3]: Particular affinity

CCCC1(C)CC(=O)N([C@@H](CC)C(N)=O)C1 (some centres unmarked) [Compound 250]
ED50 (dose producing 50% protection against audiogenic seizures) [2]: Particularly promising activity
melting point: 133.3 °C
pKi (affinity for the levetiracetam binding site) [3]: Particular affinity

CCC(C(N)=O)N1CC(C#CBr)CC1=O (centres unmarked) [Compound 264]
ED50 (dose producing 50% protection against audiogenic seizures) [2]: Particularly promising activity
melting point: 173.2 °C
pKi (affinity for the levetiracetam binding site) [3]: Particular affinity

CC[C@@H](C(N)=O)N1CCCC1=O [Levetiracetam, (S)-α-ethyl-2-oxo-1-pyrrolidine acetamide]
activity in the treatment of epilepsy [1]: effective in the treatment of epilepsy
